Where two headings read alike, the source gives them in different places. Blank lines part the entries; values can stand above or below the molecule they belong to.
How the values were obtained:
[1] = In vivo pharmacokinetics IV and PO (Table 1A); design: species or system mouse; details: for Tmax: PO, mouse plasma
MFN2 = target: T1, MFN2 (Mus musculus, UniProt Q80U63); experiment: Mitofusin activation (MFN activity), EC50; assay type: cell-based; details: stereoisomeric configurations of Compound 2
T1 sequence (Q80U63 1-757): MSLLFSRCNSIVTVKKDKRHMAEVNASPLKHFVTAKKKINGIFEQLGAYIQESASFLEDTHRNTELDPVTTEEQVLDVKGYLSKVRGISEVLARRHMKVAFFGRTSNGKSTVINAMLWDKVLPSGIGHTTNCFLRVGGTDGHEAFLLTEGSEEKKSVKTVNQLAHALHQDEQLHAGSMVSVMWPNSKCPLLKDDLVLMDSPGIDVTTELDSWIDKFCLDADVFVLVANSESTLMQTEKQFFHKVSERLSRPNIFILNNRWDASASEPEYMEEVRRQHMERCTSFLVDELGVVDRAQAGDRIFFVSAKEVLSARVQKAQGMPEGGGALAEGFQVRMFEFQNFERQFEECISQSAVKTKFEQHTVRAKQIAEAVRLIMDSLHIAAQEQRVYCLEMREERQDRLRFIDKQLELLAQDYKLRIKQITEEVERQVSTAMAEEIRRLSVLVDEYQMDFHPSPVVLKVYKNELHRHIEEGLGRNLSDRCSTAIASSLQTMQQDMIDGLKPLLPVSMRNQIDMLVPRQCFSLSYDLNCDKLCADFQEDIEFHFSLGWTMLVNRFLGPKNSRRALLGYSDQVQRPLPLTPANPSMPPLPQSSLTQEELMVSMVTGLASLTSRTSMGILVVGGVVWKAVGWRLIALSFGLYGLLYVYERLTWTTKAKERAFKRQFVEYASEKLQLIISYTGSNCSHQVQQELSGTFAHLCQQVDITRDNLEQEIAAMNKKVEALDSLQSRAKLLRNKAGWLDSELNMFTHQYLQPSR
Protocol: Mitochondria were then stained with MitoTracker Orange (200 nM; M7510; Invitrogen, Carlsbad, CA, USA). Nuclei were stained with Hoescht (10 μg/ml; Invitrogen, Thermo Fisher Scientific Cat: #H3570). […] Response curves were interpolated using the sigmoidal model using Prism 8 software.
Testing details for the MFN activity and PAMPA assay are provided in U.S. Patent Applications 2020/034566 and 2020/0345669, incorporated herein by reference.

- Tmax ([1]; 50 mg/kg): 30 min
Compound: O=C(CCCCCc1ccccc1)N[C@H]1CC[C@H](O)CC1 [Compound 1, N-(trans-4-hydroxycyclohexyl)-6-phenylhexanamide, reference compound]

- Vd ([1]; male, CD-1, mouse, plasma, iv, 10 mg/kg, read-out: Vdss): 0.6 L/kg
- bioavailability ([1]; male, CD-1, mouse, plasma, po, 50 mg/kg): 59%
- MRT ([1]; male, CD-1, mouse, plasma, single 50 mg/kg oral dose, read-out: mean tissue residence time (MRT)): 215 min
- Tmax ([1]; male, CD-1, 50 mg/kg, read-out: Tmax): 30 min
Compound: O=C(N[C@H]1CC[C@H](O)CC1)C1CC1CCCc1ccccc1 (mixture of isomers) [Compound 2, N-((1r,4r)-4-hydroxycyclohexyl)-2-(3-phenylpropyl)cyclopropane-1-carboxamide]

Compound: O=C(N[C@H]1CC[C@H](O)CC1)[C@@H]1C[C@H]1CCCc1ccccc1 [Compound 2A, (1R,2R)-N-((1r,4R)-4-hydroxycyclohexyl)-2-(3-phenylpropyl)cyclopropane-1-carboxamide]
- activity toward promoting mitofusin activation (MFN2): active toward promoting mitofusin activation

Reference: patent publication US20240199534A1 (Mitochondria Emotion, Inc., priority 2021, published 2024)
